The EC50 is the concentration that produces a half-maximal response. The IC50 is the concentration needed to halve the response being measured. A high value points to a need for much substance.

In assay [1] the target is GABA-A receptor; alpha-2/beta-3/gamma-2 (Homo sapiens) (UniProt P18507+P28472+P47869). Briefly: Positive allosteric modulation of recombinant human GABAA receptor alpha2beta3gamma2 expressed in CHOK1 cells assessed as potentiation of GABA-induced current at 10 uM at -60 mV holding potential by whole cell patch-clamp method relative to GABA. It is filed as cell-based. (In patch-clamp work, channel activity is measured electrically.)

Assay [2] has as its target Glycine receptor subunit alpha-3 (Homo sapiens) (UniProt O75311). As to the kind of experiment: Positive allosteric modulation of recombinant human glycine receptor alpha3 expressed in CHOK1 cells assessed as potentiation of glycine-induced current at 20 uM at -60 mV holding potential by whole cell patch-clamp method relative to glycine. Type of assay: cell-based.
In assay [3] the target is Glycine receptor subunit alpha-3 (Homo sapiens, UniProt O75311). As to the kind of experiment: Positive allosteric modulation of recombinant human glycine receptor alpha3 expressed in CHOK1 cells at -60 mV holding potential by whole cell patch-clamp method. Type of assay: cell-based.
Sequence of Glycine receptor subunit alpha-3 (O75311 whole entry): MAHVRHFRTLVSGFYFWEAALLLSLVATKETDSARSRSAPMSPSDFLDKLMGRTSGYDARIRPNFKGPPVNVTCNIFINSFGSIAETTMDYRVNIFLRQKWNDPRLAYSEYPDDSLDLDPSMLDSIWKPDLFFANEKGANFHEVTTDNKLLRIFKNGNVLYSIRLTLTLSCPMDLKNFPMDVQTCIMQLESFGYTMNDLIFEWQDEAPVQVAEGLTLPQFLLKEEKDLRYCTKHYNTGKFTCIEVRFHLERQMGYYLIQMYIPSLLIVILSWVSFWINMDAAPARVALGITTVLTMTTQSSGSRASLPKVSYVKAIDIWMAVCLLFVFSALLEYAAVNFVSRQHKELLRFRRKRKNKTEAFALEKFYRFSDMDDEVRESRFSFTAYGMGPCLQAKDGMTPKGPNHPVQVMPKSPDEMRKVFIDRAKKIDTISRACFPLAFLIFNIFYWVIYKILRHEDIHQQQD
In assay [4] the target is GABA-A receptor; alpha-1/beta-3/gamma-2 (Homo sapiens) (UniProt P14867+P18507+P28472). Briefly: Positive allosteric modulation of recombinant human GABAA receptor alpha1beta3gamma2 expressed in CHOK1 cells assessed as potentiation of GABA-induced current at 10 uM at -60 mV holding potential by whole cell patch-clamp method relative to GABA. Type of assay: cell-based.
Assay [5] concerns the target T1, Glycine receptor subunit alpha-1 (Homo sapiens) (UniProt P23415).
T1 sequence (whole entry): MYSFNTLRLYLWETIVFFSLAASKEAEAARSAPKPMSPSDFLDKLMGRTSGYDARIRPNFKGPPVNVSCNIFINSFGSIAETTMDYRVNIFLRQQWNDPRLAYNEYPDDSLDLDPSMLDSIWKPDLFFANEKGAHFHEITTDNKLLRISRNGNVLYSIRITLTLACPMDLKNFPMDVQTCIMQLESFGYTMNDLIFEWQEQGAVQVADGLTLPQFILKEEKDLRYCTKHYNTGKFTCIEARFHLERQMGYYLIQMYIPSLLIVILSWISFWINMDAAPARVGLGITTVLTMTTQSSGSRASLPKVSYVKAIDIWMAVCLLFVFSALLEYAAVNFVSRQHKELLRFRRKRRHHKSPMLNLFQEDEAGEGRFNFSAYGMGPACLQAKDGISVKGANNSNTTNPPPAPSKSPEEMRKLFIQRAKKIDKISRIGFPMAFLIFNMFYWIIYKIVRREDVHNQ
Briefly: Positive allosteric modulation of recombinant human glycine receptor alpha1 expressed in CHOK1 cells assessed as potentiation of glycine-induced current at 10 uM at -60 mV holding potential by whole cell patch-clamp method relative to glycine. It is filed as cell-based.

Assay [6] deals with Glycine receptor (alpha-1/beta) (Homo sapiens, UniProt P23415+P48167). As to the kind of experiment: Positive allosteric modulation of human glycine alpha1beta receptor expressed in HEK293T cells assessed as glycine-induced increase in current response after 18 to 24 hrs by membrane potential blue dye based FLIPR assay. Type of assay: cell-based.
Sequence of Glycine receptor (alpha-1/beta) (P48167 whole entry, one chain of several): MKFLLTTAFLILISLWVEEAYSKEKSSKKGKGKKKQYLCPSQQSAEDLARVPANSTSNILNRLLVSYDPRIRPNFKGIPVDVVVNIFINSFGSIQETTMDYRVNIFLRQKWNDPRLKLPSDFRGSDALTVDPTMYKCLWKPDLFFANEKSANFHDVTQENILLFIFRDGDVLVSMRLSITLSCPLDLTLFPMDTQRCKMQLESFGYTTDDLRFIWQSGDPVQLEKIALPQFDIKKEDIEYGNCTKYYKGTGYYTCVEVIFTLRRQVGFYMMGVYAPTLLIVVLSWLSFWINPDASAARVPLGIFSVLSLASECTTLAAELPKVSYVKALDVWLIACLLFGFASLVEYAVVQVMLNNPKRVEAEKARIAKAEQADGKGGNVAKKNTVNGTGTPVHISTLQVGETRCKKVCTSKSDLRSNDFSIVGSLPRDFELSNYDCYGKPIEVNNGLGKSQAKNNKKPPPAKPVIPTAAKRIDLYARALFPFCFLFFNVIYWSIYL
Assay [7] addresses T2, Gamma-aminobutyric acid receptor subunit alpha-1/beta-3/gamma-2 (Mus musculus, UniProt P22723+P62812+P63080). Briefly: Inhibition of C57BL/6 mouse GABAA receptor alpha1beta3gamma2. It is filed as protein-complex assay.
Assay [8] has as its target T3, 5-hydroxytryptamine receptor 3A (Homo sapiens, UniProt P46098).
T3 sequence (P46098 whole entry): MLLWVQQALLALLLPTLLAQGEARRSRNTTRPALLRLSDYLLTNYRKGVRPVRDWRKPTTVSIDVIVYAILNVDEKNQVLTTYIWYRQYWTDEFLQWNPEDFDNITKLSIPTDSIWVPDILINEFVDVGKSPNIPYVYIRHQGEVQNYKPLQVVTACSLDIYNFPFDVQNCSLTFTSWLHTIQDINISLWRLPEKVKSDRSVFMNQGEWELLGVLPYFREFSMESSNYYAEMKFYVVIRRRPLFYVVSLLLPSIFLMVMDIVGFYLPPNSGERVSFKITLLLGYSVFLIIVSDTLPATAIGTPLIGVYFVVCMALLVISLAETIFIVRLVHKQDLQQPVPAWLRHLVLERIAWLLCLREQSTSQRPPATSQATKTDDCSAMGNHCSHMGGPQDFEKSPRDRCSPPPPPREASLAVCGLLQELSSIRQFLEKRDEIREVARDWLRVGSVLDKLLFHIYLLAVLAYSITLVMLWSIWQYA
As to the kind of experiment: Inhibition of 5-HT3 receptor (unknown origin).

Assay [9] has as its target T2, Gamma-aminobutyric acid receptor subunit alpha-1/beta-3/gamma-2. Briefly: Positive allosteric modulation of C57BL/6 mouse GABAA receptor alpha1beta3gamma2 assessed as increase in GABA-induced current response at -60 mV holding potential by whole cell patch-clamp method relative to GABA. Type of assay: protein-complex assay.
Assay [10] has as its target T4, Glycine receptor subunit alpha-1 (Homo sapiens, UniProt P23415).
T4 sequence (P23415 whole entry): T1 sequence (whole entry)
Briefly: Positive allosteric modulation of human glycine alpha1 receptor expressed in HEK293T cells assessed as glycine-induced increase incurrent response after 18 to 24 hrs by membrane potential blue dye based FLIPR assay. It is filed as cell-based.

The target of assay [11] is T5, Glycine receptor alpha-3/beta (Homo sapiens, UniProt O75311+P48167). Briefly: Positive allosteric modulation of human glycine alpha3beta receptor expressed in HEK293T cells assessed as potentiation of glycine-induced increase in current response after 18 to 24 hrs by membrane potential blue dye based FLIPR assay relative to glycine. It is filed as cell-based.
T5 sequence (O75311 whole entry): as the sequence (O75311 whole entry) above
T5 sequence (P48167 whole entry): as the sequence (P48167 whole entry, one chain of several) above
In assay [12] the target is T5, Glycine receptor alpha-3/beta. Briefly: Positive allosteric modulation of human glycine alpha3beta receptor expressed in HEK293T cells assessed as glycine-induced increase in current response after 18 to 24 hrs by membrane potential blue dye based FLIPR assay. It is filed as cell-based.
Assay [13] addresses Gamma-aminobutyric acid receptor subunit alpha-1/beta-2/gamma-2 (Mus musculus, UniProt P22723+P62812+P63137). As to the kind of experiment: Positive allosteric modulation of C57BL/6 mouse GABAA receptor alpha1beta2gamma2 assessed as increase in GABA-induced current response at -60 mV holding potential by whole cell patch-clamp method relative to GABA. Type of assay: protein-complex assay.

Assay [14] has as its target T6, Neuronal acetylcholine receptor; alpha4/beta2 (Homo sapiens, UniProt P17787+P43681). Briefly: Agonist activity at alpha4beta2 nAChR (unknown origin). Type of assay: protein-complex assay.
In assay [15] the target is T3, 5-hydroxytryptamine receptor 3A. As to the kind of experiment: Agonist activity at 5-HT3 receptor (unknown origin).
For assay [16], the target named is T6, Neuronal acetylcholine receptor; alpha4/beta2. As to the kind of experiment: Inhibition of alpha4beta2 nAChR (unknown origin). It is filed as protein-complex assay.

T2 sequence (P22723 whole entry): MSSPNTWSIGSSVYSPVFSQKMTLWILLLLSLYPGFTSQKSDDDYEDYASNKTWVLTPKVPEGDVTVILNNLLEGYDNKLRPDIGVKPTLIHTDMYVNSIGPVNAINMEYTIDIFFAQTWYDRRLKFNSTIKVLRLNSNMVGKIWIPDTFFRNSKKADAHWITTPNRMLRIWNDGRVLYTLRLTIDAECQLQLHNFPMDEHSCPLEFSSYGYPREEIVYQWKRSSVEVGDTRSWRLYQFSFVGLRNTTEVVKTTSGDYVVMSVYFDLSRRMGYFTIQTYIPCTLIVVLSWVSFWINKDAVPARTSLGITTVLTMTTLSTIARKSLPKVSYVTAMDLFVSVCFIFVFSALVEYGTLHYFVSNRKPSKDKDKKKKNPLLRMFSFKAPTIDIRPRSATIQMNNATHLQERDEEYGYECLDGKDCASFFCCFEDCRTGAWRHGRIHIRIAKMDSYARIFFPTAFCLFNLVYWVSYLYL
T2 sequence (P62812 whole entry): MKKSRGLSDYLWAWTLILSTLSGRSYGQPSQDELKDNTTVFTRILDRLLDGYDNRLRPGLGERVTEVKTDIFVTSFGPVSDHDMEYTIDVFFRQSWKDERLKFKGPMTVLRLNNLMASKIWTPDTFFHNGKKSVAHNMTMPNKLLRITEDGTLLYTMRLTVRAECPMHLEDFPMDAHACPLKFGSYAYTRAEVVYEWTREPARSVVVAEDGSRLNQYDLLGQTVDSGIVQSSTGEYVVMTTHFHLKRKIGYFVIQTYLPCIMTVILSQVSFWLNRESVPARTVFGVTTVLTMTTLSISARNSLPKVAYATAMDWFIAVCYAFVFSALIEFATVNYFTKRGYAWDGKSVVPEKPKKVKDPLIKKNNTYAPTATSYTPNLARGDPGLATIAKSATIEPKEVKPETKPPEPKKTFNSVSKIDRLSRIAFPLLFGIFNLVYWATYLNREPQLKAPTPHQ
T2 sequence (P63080 whole entry): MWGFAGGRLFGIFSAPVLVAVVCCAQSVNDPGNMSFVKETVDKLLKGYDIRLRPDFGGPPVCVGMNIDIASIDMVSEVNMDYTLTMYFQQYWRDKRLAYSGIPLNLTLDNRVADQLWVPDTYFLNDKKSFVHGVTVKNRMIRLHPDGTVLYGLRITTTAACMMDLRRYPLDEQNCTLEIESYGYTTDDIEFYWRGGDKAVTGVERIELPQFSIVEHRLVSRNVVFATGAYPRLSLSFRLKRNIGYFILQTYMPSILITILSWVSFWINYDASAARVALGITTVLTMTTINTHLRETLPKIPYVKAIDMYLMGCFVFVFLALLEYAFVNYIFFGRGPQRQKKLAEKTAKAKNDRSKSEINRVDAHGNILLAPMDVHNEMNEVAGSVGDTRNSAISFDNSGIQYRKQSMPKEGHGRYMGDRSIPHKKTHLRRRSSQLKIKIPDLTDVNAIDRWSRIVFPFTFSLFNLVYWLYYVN
T6 sequence (P17787 whole entry): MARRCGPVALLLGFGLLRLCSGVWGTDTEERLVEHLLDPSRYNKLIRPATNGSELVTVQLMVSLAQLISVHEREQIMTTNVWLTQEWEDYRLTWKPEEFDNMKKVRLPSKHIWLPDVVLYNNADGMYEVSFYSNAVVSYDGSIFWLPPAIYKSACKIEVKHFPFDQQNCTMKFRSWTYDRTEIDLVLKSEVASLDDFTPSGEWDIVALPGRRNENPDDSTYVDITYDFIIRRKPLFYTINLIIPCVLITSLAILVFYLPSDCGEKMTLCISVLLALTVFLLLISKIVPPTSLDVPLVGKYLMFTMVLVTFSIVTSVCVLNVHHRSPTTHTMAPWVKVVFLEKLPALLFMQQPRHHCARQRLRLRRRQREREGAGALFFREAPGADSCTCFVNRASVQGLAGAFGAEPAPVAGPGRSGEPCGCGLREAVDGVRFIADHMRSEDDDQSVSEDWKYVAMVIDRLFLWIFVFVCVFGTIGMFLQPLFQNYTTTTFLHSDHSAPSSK
T6 sequence (P43681 whole entry): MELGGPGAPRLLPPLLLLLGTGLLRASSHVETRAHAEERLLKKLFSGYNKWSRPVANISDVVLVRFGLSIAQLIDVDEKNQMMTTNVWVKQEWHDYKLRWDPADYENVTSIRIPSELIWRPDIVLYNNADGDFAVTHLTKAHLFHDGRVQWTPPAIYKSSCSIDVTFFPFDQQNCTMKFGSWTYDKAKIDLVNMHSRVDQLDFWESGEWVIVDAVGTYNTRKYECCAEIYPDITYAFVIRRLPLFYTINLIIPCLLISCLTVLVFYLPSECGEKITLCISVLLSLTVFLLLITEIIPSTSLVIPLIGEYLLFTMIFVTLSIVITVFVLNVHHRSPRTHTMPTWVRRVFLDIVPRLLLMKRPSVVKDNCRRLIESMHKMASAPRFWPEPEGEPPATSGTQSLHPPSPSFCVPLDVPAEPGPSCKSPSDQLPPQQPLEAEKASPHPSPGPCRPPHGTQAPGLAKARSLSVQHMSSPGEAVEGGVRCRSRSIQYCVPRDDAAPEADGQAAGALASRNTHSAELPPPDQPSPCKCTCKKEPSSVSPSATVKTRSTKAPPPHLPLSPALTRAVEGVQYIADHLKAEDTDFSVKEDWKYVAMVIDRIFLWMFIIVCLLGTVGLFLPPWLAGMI
Sequence of Gamma-aminobutyric acid receptor subunit alpha-1/beta-2/gamma-2 (P22723 whole entry): as the sequence (P22723 whole entry) above
Sequence of Gamma-aminobutyric acid receptor subunit alpha-1/beta-2/gamma-2 (P62812 whole entry): as the sequence (P62812 whole entry) above
Sequence of Gamma-aminobutyric acid receptor subunit alpha-1/beta-2/gamma-2 (P63137 whole entry): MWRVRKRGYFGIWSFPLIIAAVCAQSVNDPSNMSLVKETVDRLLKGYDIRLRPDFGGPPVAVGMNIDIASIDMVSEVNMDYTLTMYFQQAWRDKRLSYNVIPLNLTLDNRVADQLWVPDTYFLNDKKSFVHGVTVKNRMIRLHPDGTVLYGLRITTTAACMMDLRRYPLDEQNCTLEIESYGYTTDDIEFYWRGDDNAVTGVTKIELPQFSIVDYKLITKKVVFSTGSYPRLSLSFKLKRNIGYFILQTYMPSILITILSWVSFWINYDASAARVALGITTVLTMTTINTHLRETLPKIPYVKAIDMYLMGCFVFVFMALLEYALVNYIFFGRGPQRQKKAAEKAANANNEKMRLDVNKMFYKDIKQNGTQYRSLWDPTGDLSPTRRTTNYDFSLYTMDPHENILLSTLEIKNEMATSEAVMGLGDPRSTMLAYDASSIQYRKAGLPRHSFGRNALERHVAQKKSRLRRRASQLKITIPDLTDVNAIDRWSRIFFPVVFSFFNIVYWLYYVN
Sequence of Glycine receptor subunit alpha-3 (Homo sapiens) (O75311 whole entry): as the sequence (O75311 whole entry) above

With `O=S(=O)(NCCOc1cccc2cccnc12)c1ccc(F)cc1`, the fold change (FC) in [1] is 0; in [2], 28; in assay [4], 0; in assay [5], 39.7. Moreover, the EC50 in assay [3] was 3.9 µM.
Take `C[C@H]1[C@H]2C(=O)N(C)c3ccncc3[C@H]2CN1S(=O)(=O)c1ccc2c(c1)OCO2`: the EC50 in [6] was 0.016 µM; in assay [9], above 30 µM; in [10], 0.032 µM; in [12] it was 0.066 µM; in assay [13], above 50 µM; in assay [14], above 25 µM. In [15], this compound gave an EC50 above 25 µM. For the same compound, the 50% inhibitory concentration (IC50) was above 30 µM in [7], above 30 µM in assay [8] and above 25 µM in assay [16]. Further, the fold change (FC) in [11] amounted to 11.

The values above are taken from ChEMBL document CHEMBL4219030, “Progress in the discovery of small molecule modulators of the Cys-loop superfamily receptors” (Bioorg Med Chem Lett, 2017).
